The record followed here is the supplement of paper PMC11208160.
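Also: IS621 recombinase and bridge RNA in Escherichia coli cells.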

This series can be described thus: recombinant barcode read abundance after kanamycin selection (control-corrected) (log10(CPM+1)); higher = more efficient recombination; sequences stand for … in AGTGCAGAGAAAATCGGCCAGTTTTCTCTGCCTGCAGTCCGCATGCCGT…AGATTTATGCAGCGGACTGCCTTTCTCCCAAAGTGATAAACCGGACAGTATCATGGACCGGTTTTCCCGGTAATCCGTATTTGCAAGGTTGGTTTCACT; site = the 11-nt target. Summed up: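 Pooled oligos, each joining a target to an IS621 bridge RNA target-binding loop, were cloned and co-electroporated with a donor plasmid into E. coli. Selective plates carried chloramphenicol/ampicillin/kanamycin and 0.1 mM IPTG, while chloramphenicol/ampicillin LB agar served as control, with two replicates of each. Recombination efficiency rests on averaged, control-corrected counts per million of barcodes at recombinant junctions, shown as log10(CPM+1).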
On to “CCGATCCCTTGGGTTCTAACCTGTTGCCT (site CTGATCCCTAG)”, for which the “recombinant barcode read abundance (log10)” value was determined as 0.107.

Turning to “CCGCACACTTGGGTTCTAACCTGTTGCCT (site ACGCACACTAG)”, the “recombinant barcode read abundance (log10)” value turned out to be 0.191.

“CCGCACACTTGGGTTCTAACCTGTTGCCT (site CCGCACACTAG)”: the “recombinant barcode read abundance (log10)” value was 1.8.

Take “CCGCACACTTGGGTTCTAACCTGTTGCCT (site GCGCACACTAG)”: the “recombinant barcode read abundance (log10)” value was 0.213.

For the sequence “CCGCACACTTGGGTTCTAACCTGTTGCCT (site TCGCACACTAG)”, the “recombinant barcode read abundance (log10)” value was found to be 0.305.

As to “CCGCGAGCTTGGGTTCTAACCTGTTGCCG (site CCGCGAGCTCG)”, the “recombinant barcode read abundance (log10)” value was 0.599.

For the sequence “CCGCGAGCTTGGGTTCTAACCTGTTGCCG (site GATGTGCCTAC)”, the “recombinant barcode read abundance (log10)” value came out at 0.137.

For “CCGCTAGCTTGGGTTCTAACCTGTTGCCT (site ACGCTAGCTAG)”, the “recombinant barcode read abundance (log10)” value came out at 0.0362.

For the sequence “CCGCTAGCTTGGGTTCTAACCTGTTGCCT (site CCGCTAGCTAG)”, the “recombinant barcode read abundance (log10)” value came out at 0.183.

Regarding “CCGCTAGCTTGGGTTCTAACCTGTTGCCT (site GCGCTAGCTAG)”, the “recombinant barcode read abundance (log10)” value stood at 0.0389.

Take “CCGCTAGCTTGGGTTCTAACCTGTTGCCT (site TCGCTAGCTAG)”: the “recombinant barcode read abundance (log10)” value is 0.046.

As to “CCGCTTACTTGGGTTCTAACCTGTTGCCT (site CCGCTCGCTAG)”, the “recombinant barcode read abundance (log10)” value was 0.0115.

For “CCGCTTACTTGGGTTCTAACCTGTTGCCT (site CCGCTTACTAG)”, the “recombinant barcode read abundance (log10)” value came out at 0.0232.

As for “CCGGACCCTTGGGTTCTAACCTGTTGCCT (site CCGGACCCTAG)”, the “recombinant barcode read abundance (log10)” value amounted to 1.88.

Turning to “CCGGACCCTTGGGTTCTAACCTGTTGCCT (site GCGGACGCTAG)”, the “recombinant barcode read abundance (log10)” value was found to be 0.232.

Consider “CCGGAGCCTTGGGTTCTAACCTGTTGCCT (site CCGAAGCCTAG)”, for which the “recombinant barcode read abundance (log10)” value came to 1.42.

As to “CCGGAGCCTTGGGTTCTAACCTGTTGCCT (site CCGCAGCCTAG)”, the “recombinant barcode read abundance (log10)” value came to 0.271.

For the sequence “CCGGAGCCTTGGGTTCTAACCTGTTGCCT (site CCGGAGCCTAG)”, the “recombinant barcode read abundance (log10)” value is 2.41.

In the case of “CCGGAGCCTTGGGTTCTAACCTGTTGCCT (site CCGTAGCCTAG)”, the “recombinant barcode read abundance (log10)” value stood at 0.413.

For the sequence “CCGGGGTCTTGGGTTCTAACCTGTTGCCT (site ACGGGGTCTAG)”, the “recombinant barcode read abundance (log10)” value stood at 0.789.

As for “CCGGGGTCTTGGGTTCTAACCTGTTGCCT (site CCGGGGTCTAG)”, the “recombinant barcode read abundance (log10)” value was found to be 1.76.

For “CCGGGGTCTTGGGTTCTAACCTGTTGCCT (site GCGGGGTCTAG)”, the “recombinant barcode read abundance (log10)” value came out at 0.0665.

Consider “CCGGGGTCTTGGGTTCTAACCTGTTGCCT (site TCGGGGTCTAG)”, for which the “recombinant barcode read abundance (log10)” value stood at 0.0922.

With “CCGGGTTCTTGGGTTCTAACCTGTTGCCT (site CAGGGTTCTAG)”, the “recombinant barcode read abundance (log10)” value was 0.145.

As for “CCGGGTTCTTGGGTTCTAACCTGTTGCCT (site CCGGGTTCTAG)”, the “recombinant barcode read abundance (log10)” value turned out to be 1.79.

On to “CCGGGTTCTTGGGTTCTAACCTGTTGCCT (site CGGGGTTCTAG)”, for which the “recombinant barcode read abundance (log10)” value amounted to 0.16.

In the case of “CCGGGTTCTTGGGTTCTAACCTGTTGCCT (site CTGGGTTCTAG)”, the “recombinant barcode read abundance (log10)” value amounted to 0.154.

With “CCGGTCCCTTGGGTTCTAACCTGTTGCAG (site CCGGTCCCTCT)”, the “recombinant barcode read abundance (log10)” value turned out to be 2.07.

Take “CCGGTCCCTTGGGTTCTAACCTGTTGCAG (site GGACAGTCTAC)”: the “recombinant barcode read abundance (log10)” value turned out to be 0.307.

As to “CCGTAAACTTGGGTTCTAACCTGTTGCCT (site CCGTAAACTAG)”, the “recombinant barcode read abundance (log10)” value was 0.35.

On to “CCGTAAACTTGGGTTCTAACCTGTTGCCT (site CCGTAACCTAG)”, for which the “recombinant barcode read abundance (log10)” value was found to be 0.0417.

“CCGTAAACTTGGGTTCTAACCTGTTGCCT (site CCGTAAGCTAG)”: the “recombinant barcode read abundance (log10)” value was found to be 0.418.

Take “CCGTAAACTTGGGTTCTAACCTGTTGCCT (site CCGTAATCTAG)”: the “recombinant barcode read abundance (log10)” value is 0.0331.

For “CCGTAACCTTGGGTTCTAACCTGTTGCCT (site CCGTAAACTAG)”, the “recombinant barcode read abundance (log10)” value worked out at 0.149.

With “CCGTAACCTTGGGTTCTAACCTGTTGCCT (site CCGTAACCTAG)”, the “recombinant barcode read abundance (log10)” value was 1.57.

As to “CCGTAACCTTGGGTTCTAACCTGTTGCCT (site CCGTAAGCTAG)”, the “recombinant barcode read abundance (log10)” value was 0.00896.

In the case of “CCGTAACCTTGGGTTCTAACCTGTTGCCT (site CCGTAATCTAG)”, the “recombinant barcode read abundance (log10)” value is 0.237.

In the case of “CCGTAATCTTGGGTTCTAACCTGTTGCCT (site CCGTAAACTAG)”, the “recombinant barcode read abundance (log10)” value was 0.0257.

Consider “CCGTAATCTTGGGTTCTAACCTGTTGCCT (site CCGTAACCTAG)”, for which the “recombinant barcode read abundance (log10)” value came to 0.47.

With “CCGTAATCTTGGGTTCTAACCTGTTGCCT (site CCGTAAGCTAG)”, the “recombinant barcode read abundance (log10)” value was 0.211.

Regarding “CCGTAATCTTGGGTTCTAACCTGTTGCCT (site CCGTAATCTAG)”, the “recombinant barcode read abundance (log10)” value was 0.308.

On to “CCGTAGCCTTGGGTTCTAACCTGTTGCCT (site CCGAAGCCTAG)”, for which the “recombinant barcode read abundance (log10)” value amounted to 0.129.

For the sequence “CCGTAGCCTTGGGTTCTAACCTGTTGCCT (site CCGCAGCCTAG)”, the “recombinant barcode read abundance (log10)” value turned out to be 0.288.

As to “CCGTAGCCTTGGGTTCTAACCTGTTGCCT (site CCGGAGCCTAG)”, the “recombinant barcode read abundance (log10)” value was determined as 0.162.

Take “CCGTAGCCTTGGGTTCTAACCTGTTGCCT (site CCGTAGCCTAG)”: the “recombinant barcode read abundance (log10)” value came out at 1.03.

As for “CCGTAGTCTTGGGTTCTAACCTGTTGCCT (site CCGTACTCTAG)”, the “recombinant barcode read abundance (log10)” value came out at 0.0425.

As for “CCGTAGTCTTGGGTTCTAACCTGTTGCCT (site CCGTAGTCTAG)”, the “recombinant barcode read abundance (log10)” value turned out to be 0.899.

Take “CCGTCAACTTGGGTTCTAACCTGTTGCCT (site CCGTCAACTAG)”: the “recombinant barcode read abundance (log10)” value stood at 0.226.

“CCGTCAACTTGGGTTCTAACCTGTTGCCT (site GTACTCTCTCT)”: the “recombinant barcode read abundance (log10)” value was 0.0368.

Regarding “CCGTCATCTTGGGTTCTAACCTGTTGCCT (site CCGTCATCTAG)”, the “recombinant barcode read abundance (log10)” value came out at 0.108.

On to “CCGTCATCTTGGGTTCTAACCTGTTGCCT (site CCGTCGTCTAG)”, for which the “recombinant barcode read abundance (log10)” value was found to be 0.234.

Consider “CCGTGCCCTTGGGTTCTAACCTGTTGCCT (site CCGTGCCCTAG)”, for which the “recombinant barcode read abundance (log10)” value was 0.676.

Turning to “CCGTGCCCTTGGGTTCTAACCTGTTGCCT (site GCGTGCCCTAG)”, the “recombinant barcode read abundance (log10)” value was 0.0432.

For the sequence “CCGTGGCCTTGGGTTCTAACCTGTTGCTT (site CCGTGGACTAG)”, the “recombinant barcode read abundance (log10)” value was found to be 0.0169.

Turning to “CCGTGGCCTTGGGTTCTAACCTGTTGCTT (site CCGTGGCCTAA)”, the “recombinant barcode read abundance (log10)” value worked out at 0.176.

On to “CCGTGTCCTTGGGTTCTAACCTGTTGCCG (site CCGTGTCCTCG)”, for which the “recombinant barcode read abundance (log10)” value came out at 1.32.

Turning to “CCGTGTCCTTGGGTTCTAACCTGTTGCCG (site GCGTGTCCTTG)”, the “recombinant barcode read abundance (log10)” value came to 0.

Consider “CCGTTATCTTGGGTTCTAACCTGTTGCCT (site CCGATATCTAG)”, for which the “recombinant barcode read abundance (log10)” value turned out to be 0.0227.

With “CCGTTATCTTGGGTTCTAACCTGTTGCCT (site CCGCTATCTAG)”, the “recombinant barcode read abundance (log10)” value stood at 0.

In the case of “CCGTTATCTTGGGTTCTAACCTGTTGCCT (site CCGGTATCTAG)”, the “recombinant barcode read abundance (log10)” value worked out at 0.0837.

With “CCGTTATCTTGGGTTCTAACCTGTTGCCT (site CCGTTATCTAG)”, the “recombinant barcode read abundance (log10)” value amounted to 0.0274.

With “CCTAACGCTTGGGTTCTAACCTGTTGCCT (site CCTAACGCTAG)”, the “recombinant barcode read abundance (log10)” value came to 0.625.

With “CCTAACGCTTGGGTTCTAACCTGTTGCCT (site CCTCGCGCTAG)”, the “recombinant barcode read abundance (log10)” value was 0.0688.

Regarding “CCTAAGACTTGGGTTCTAACCTGTTGCCC (site CCTAAGACTAG)”, the “recombinant barcode read abundance (log10)” value turned out to be 0.23.

Consider “CCTAAGACTTGGGTTCTAACCTGTTGCCC (site CCTAAGACTCG)”, for which the “recombinant barcode read abundance (log10)” value amounted to 0.0665.

Regarding “CCTAAGACTTGGGTTCTAACCTGTTGCCC (site CCTAAGACTGG)”, the “recombinant barcode read abundance (log10)” value was 0.16.

In the case of “CCTAAGACTTGGGTTCTAACCTGTTGCCC (site CCTAAGACTTG)”, the “recombinant barcode read abundance (log10)” value is 0.0914.

With “CCTAAGCCTTGGGTTCTAACCTGTTGCGT (site CCTAAACCTAC)”, the “recombinant barcode read abundance (log10)” value amounted to 1.23.

Turning to “CCTAAGCCTTGGGTTCTAACCTGTTGCGT (site CCTAACCCTAC)”, the “recombinant barcode read abundance (log10)” value worked out at 0.977.

“CCTAAGCCTTGGGTTCTAACCTGTTGCGT (site CCTAAGCCTAC)”: the “recombinant barcode read abundance (log10)” value is 1.21.

Regarding “CCTAAGCCTTGGGTTCTAACCTGTTGCGT (site CCTAATCCTAC)”, the “recombinant barcode read abundance (log10)” value stood at 0.161.

“CCTAAGCCTTGGGTTCTAACCTGTTGCTG (site CCTAAGCCTCA)”: the “recombinant barcode read abundance (log10)” value stood at 0.473.

Take “CCTAAGCCTTGGGTTCTAACCTGTTGCTG (site TACCCTTCTAC)”: the “recombinant barcode read abundance (log10)” value stood at 0.141.

On to “CCTAATACTTGGGTTCTAACCTGTTGCGT (site CCTAATACTAC)”, for which the “recombinant barcode read abundance (log10)” value came to 0.988.

Consider “CCTAATACTTGGGTTCTAACCTGTTGCGT (site CCTTAGACTAC)”, for which the “recombinant barcode read abundance (log10)” value worked out at 0.0351.

With “CCTAATCCTTGGGTTCTAACCTGTTGCGT (site CCTAAACCTAC)”, the “recombinant barcode read abundance (log10)” value was found to be 0.0528.

Consider “CCTAATCCTTGGGTTCTAACCTGTTGCGT (site CCTAACCCTAC)”, for which the “recombinant barcode read abundance (log10)” value was 0.295.
